Patent publication US10597388B2, “Pyridazinone herbicides” (FMC CORPORATION, priority 2014, dated 2020)

Tests used:
Type in all cases: in vivo
[1] = test system: pigweed (Amaranthus retroflexus); assay: Test A greenhouse herbicide test, pre- and postemergence
Procedure, shortened: (§1)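 Seeds sown in loam–sand blend got a preemergence directed soil spray of compound in non-phytotoxic solvent with surfactant. Postemergence treatment was given at 2–10 cm, one- to two-leaf stage. After ~10 d in greenhouse, injury was rated visually vs untreated controls, 0 (no effect) to 100 (complete control).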

[2] = test system: ragweed (common ragweed, Ambrosia elatior); assay: as above
Procedure, shortened: as §1

[3] = test system: barnyardgrass (Echinochloa crus-galli); assay: as above
Procedure, shortened: as §1

[4] = test system: kochia (Kochia scoparia); assay: as above
Procedure, shortened: as §1

[5] = test system: wheat (Triticum aestivum); assay: as above; settings: Postemergence
Procedure, shortened: as §1

[6] = test system: corn (Zea mays); assay: as above; settings: Postemergence
Procedure, shortened: as §1

[7] = test system: kochia (Kochia scoparia); assay: Test C greenhouse herbicide test, postemergence
Procedure, shortened: (§2)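 Steps: pot plants in peat-based medium; spray postemergence at 1- to 4-leaf stage; hold in greenhouse 13 to 15 d; score visually against controls from 0 (no effect) to 100 (complete control).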

[8] = test system: oat, wild (wild oat, Avena fatua); assay: Test C greenhouse herbicide test, postemergence
Procedure, shortened: as §2

[9] = test system: galium (catchweed bedstraw, Galium aparine); assay: Test A greenhouse herbicide test, postemergence
Procedure, shortened: (§3)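 Greenhouse postemergence test: formulated chemicals sprayed on one- to two-leaf plants (2 to 10 cm), grown in loam soil blended with sand. Injury assessed visually about 10 d later against untreated controls, scored 0 (no effect) to 100 (complete control).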

[10] = test system: blackgrass (Alopecurus myosuroides); assay: Test A greenhouse herbicide test, postemergence
Procedure, shortened: as §3

[11] = test system: oilseed rape (Brassica napus); assay: Test C greenhouse herbicide test, pre- and postemergence
Procedure, shortened: (§4)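 Two application timings: at sowing into a soil/sand blend, and on 2–18 cm seedlings in peat-vermiculite potting mix. A non-phytotoxic, surfactant-containing solvent carried the compounds. Plants were compared with controls and rated visually on 0–100 after 13–15 d.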

[12] = test system: crabgrass, large (large crabgrass, Digitaria sanguinalis); assay: as above
Procedure, shortened: as §4

[13] = Postemergence, 125 g ai/ha, 0 to 100 scale where 0 is no effect and 100 is complete control
[14] = Postemergence, 500 g ai/ha, visual rating after approx. 10 d, 0 to 100 scale (0 no effect, 100 complete control)
[15] = Preemergence, 125 g ai/ha, 0 to 100 scale where 0 is no effect and 100 is complete control
[16] = Preemergence, 500 g ai/ha, 0 to 100 scale where 0 is no effect and 100 is complete control
[17] = 125 g ai/ha, 0 to 100 scale where 0 is no effect and 100 is complete control
[18] = 500 g ai/ha, visual rating after approx. 10 d, 0 to 100 scale (0 no effect, 100 complete control)
[19] = Postemergence, 31 g ai/ha, scale 0 to 100 (0 no effect, 100 complete control)
[20] = Postemergence, 62 g ai/ha, 0 to 100 scale (0 no effect, 100 complete control)
[21] = Postemergence, 250 g ai/ha, scale 0 to 100, 0 no effect, 100 complete control, 13 to 15 d
[22] = postemergence, 125 g ai/ha, scale 0 to 100, 0 no effect, 100 complete control
[23] = Preemergence, 31 g ai/ha, scale 0 to 100, 0 is no effect, 100 is complete control
[24] = Preemergence, 62 g ai/ha, scale 0 to 100, 0 is no effect, 100 is complete control
[25] = Preemergence, 125 g ai/ha, scale 0 to 100, 0 is no effect, 100 is complete control
[26] = Preemergence, 250 g ai/ha, scale 0 to 100 (0 no effect, 100 complete control)

SMILES: COC(=O)Oc1c(Br)nn(C)c(=O)c1-c1c(C)ccc2ccccc12 [Compound 137]
- Plant response rating, Pigweed [1, 13]: 100
- Plant response rating, Pigweed [1, 14]: 100
- Pigweed plant response rating [1, 15]: 100
- Plant response rating, Pigweed [1, 16]: 100
- Plant response rating, Ragweed [2, 13]: 100
- Plant response rating, Ragweed [2, 14]: 100
- Ragweed plant response rating [2, 15]: 90
- Plant response rating, Ragweed [2, 16]: 100
- Plant response rating, Barnyardgrass [3, 13]: 70
- Plant response rating, Barnyardgrass [3, 14]: 100
- Barnyardgrass plant response rating [3, 15]: 90
- Plant response rating, Barnyardgrass [3, 16]: 100
- Plant response rating, Kochia [4, 13]: 100
- Plant response rating, Kochia [4, 14]: 100
- Kochia plant response rating [4, 15]: 30
- Plant response rating, Kochia [4, 16]: 100
- Plant response rating, Wheat [5, 17]: 50
- Plant response rating, Wheat [5, 18]: 90
- Plant response rating, Corn [6, 17]: 30
- Plant response rating, Corn [6, 18]: 70
- Plant response rating, Kochia [7, 19]: 100
- Kochia plant response rating [7, 20]: 100
- Plant response rating, Kochia [7, 21]: 100
- Kochia plant response rating [7, 22]: 100
- Plant response rating, Oat, Wild [8, 19]: 70
- Oat, Wild plant response rating [8, 20]: 70
- Plant response rating, Oat, Wild [8, 21]: 90
- Oat, Wild plant response rating [8, 22]: 90
- Plant response rating, Galium [9, 17]: 100
- Plant response rating, Galium [9, 18]: 100
- Plant response rating, Blackgrass [10, 17]: 90
- Plant response rating, Blackgrass [10, 18]: 100
- Plant response rating, Oilseed Rape [11, 19]: 95
- Oilseed Rape plant response rating [11, 20]: 98
- Plant response rating, Oilseed Rape [11, 21]: 98
- Plant response rating, Oilseed Rape [11, 23]: 0
- Plant response rating, Oilseed Rape [11, 24]: 90
- Plant response rating, Oilseed Rape [11, 25]: 50
- Oilseed Rape plant response rating [11, 26]: 90
- Oilseed Rape plant response rating [11, 22]: 98
- Plant response rating, Crabgrass, Large [12, 19]: 30
- Crabgrass, Large plant response rating [12, 20]: 30
- Plant response rating, Crabgrass, Large [12, 21]: 35
- Plant response rating, Crabgrass, Large [12, 23]: 20
- Plant response rating, Crabgrass, Large [12, 24]: 20
- Plant response rating, Crabgrass, Large [12, 25]: 70
- Crabgrass, Large plant response rating [12, 26]: 80
- Crabgrass, Large plant response rating [12, 22]: 35

SMILES: COc1nn(C)c(=O)c(-c2c(C)ccc3ccccc23)c1OC(C)=O [Compound 138]
- Plant response rating, Pigweed [1, 13]: 90
- Plant response rating, Pigweed [1, 14]: 100
- Pigweed plant response rating [1, 15]: 100
- Plant response rating, Pigweed [1, 16]: 100
- Plant response rating, Ragweed [2, 13]: 100
- Plant response rating, Ragweed [2, 14]: 100
- Plant response rating, Ragweed [2, 16]: 100
- Plant response rating, Barnyardgrass [3, 13]: 20
- Plant response rating, Barnyardgrass [3, 14]: 100
- Barnyardgrass plant response rating [3, 15]: 10
- Plant response rating, Barnyardgrass [3, 16]: 100
- Plant response rating, Kochia [4, 13]: 100
- Plant response rating, Kochia [4, 14]: 100
- Kochia plant response rating [4, 15]: 40
- Plant response rating, Kochia [4, 16]: 100
- Plant response rating, Wheat [5, 17]: 0
- Plant response rating, Wheat [5, 18]: 20
- Plant response rating, Corn [6, 17]: 0
- Plant response rating, Corn [6, 18]: 20
- Plant response rating, Kochia [7, 19]: 90
- Kochia plant response rating [7, 20]: 95
- Plant response rating, Kochia [7, 21]: 100
- Kochia plant response rating [7, 22]: 100
- Plant response rating, Oat, Wild [8, 19]: 50
- Oat, Wild plant response rating [8, 20]: 80
- Plant response rating, Oat, Wild [8, 21]: 90
- Oat, Wild plant response rating [8, 22]: 80
- Plant response rating, Galium [9, 17]: 100
- Plant response rating, Galium [9, 18]: 100
- Plant response rating, Blackgrass [10, 17]: 80
- Plant response rating, Blackgrass [10, 18]: 90
- Plant response rating, Oilseed Rape [11, 19]: 95
- Oilseed Rape plant response rating [11, 20]: 98
- Plant response rating, Oilseed Rape [11, 21]: 98
- Plant response rating, Oilseed Rape [11, 23]: 85
- Plant response rating, Oilseed Rape [11, 24]: 90
- Plant response rating, Oilseed Rape [11, 25]: 90
- Oilseed Rape plant response rating [11, 26]: 100
- Oilseed Rape plant response rating [11, 22]: 98
- Plant response rating, Crabgrass, Large [12, 19]: 15
- Crabgrass, Large plant response rating [12, 20]: 20
- Plant response rating, Crabgrass, Large [12, 21]: 25
- Plant response rating, Crabgrass, Large [12, 23]: 0
- Plant response rating, Crabgrass, Large [12, 24]: 40
- Plant response rating, Crabgrass, Large [12, 25]: 70
- Crabgrass, Large plant response rating [12, 26]: 80
- Crabgrass, Large plant response rating [12, 22]: 20
